Test results as given in US20160262390A1, “FIELD APPLICATION OF SUGARS TO INCREASE CROP YIELD” (Minn-Dak Farmers Cooperative, priority 2015, published 2016).

Assays:
sugarbeets = assay: Pre-planting sugar application on sugarbeets, Hickson; assay type: in vivo, sugarbeet; conditions: for Recoverable Sugar Yield / Recoverable Sugar Yield Increase Compared to Check Average / Sugarbeet Yield: ND
Description: (§1) The field trials were conducted simultaneously in two different planting locations for each of the crops. One location was near the community of Foxhome in Wilkin County, Minnesota (hereafter referred to as “Foxhome”) while the second location was near the community of Hickson in Cass County, North Dakota (hereafter referred to as “Hickson”). The Foxhome and Hickson locations are on opposite sides of the Red River along the border of Minnesota and North Dakota and separated by a distance exceeding 40 miles. Generally, the Foxhome location has heavier clay loam soil conditions while Hickson has sandy loam soil conditions.
(§2) At each of the Foxhome and Hickson locations, a total of thirty two (32) treatments were conducted for each crop (sugarbeets, soybeans, corn, wheat). Each treatment was replicated four times arranged in a Randomized Complete Block (RCB) Design in the same field. Each replication consisted of a plot measuring twenty five (25) feet in length and eleven (11) feet in width. In selecting the particular seed types for evaluation, popular commercial varieties to the region were utilized. For the row crops (sugarbeets, soybeans, corn) each replication included a width of six (6) rows with twenty two (22) inch row spacing and having a row length of twenty five (25) feet. The wheat was planted in accordance with standard commercial practices. To reduce/eliminate any treatment impacts between adjacent plots for the crops, only the four (4) interior rows of each plot were treated and evaluated for row crops, while for wheat, only the interior 7.33 feet of each plot were treated and evaluated. With the exception of the treatment program applied to the individual plots, which will be discussed below, conventional commercial growing practices for each planting location were otherwise followed during the field trials. While the individual plots at the same location, Hickson or Foxhome, experienced essentially the same growing conditions throughout the season, there were various differences associated with localized precipitation, general growing conditions, soil classification and the like, which contributed to performance differences between the Hickson and Foxhome locations.
(§3) The treatment regimen at each location for each of the tested crops included two (2) untreated treatments (Treatments 31 and 32) in which no sugar was applied and constitute the control elements. […] Six (6) treatments (Treatments 13-18) included the liquid application of high fructose corn syrup (hereafter “HFCS”) at varying rates. Six treatments (Treatments 19-24) included the liquid application of dextrose (hereafter “LIQDEX”) at varying rates. Six (6) treatments (Treatments 25-30) included the application of powdered cellulose (hereafter “POWCEL”) at varying rates. For the sugar applied in a solid form, granulated or powdered, field application was conducted via conventional broadcast spreading. For the sugar applied in a liquid form, a liquid concentrate was mixed and diluted with water in a tank and a conventional sprayer was configured such that the liquid was sprayed so as to have the same sugar equivalent (measured in pounds/per acre) as the sugar in solid form. Regardless of whether the sugar was applied as a solid or liquid, the sugar was applied directly onto the soil before spring tillage, lightly worked into the ground and followed by planting of the crop seed in the treated ground. A summary of application rates for each plot treatments are contained in Table 7 below and were used consistently with each of the crops (sugarbeets, soybeans, corn, wheat).
To test the impact of pre-planting application rates and sugar source on sugarbeets, identical field trials using Crystal® brand ACH 260 sugarbeet seed were conducted at the Foxhome and Hickson locations. Planting of the sugarbeet seed and harvest of the sugarbeets were conducted on as close to the same dates as practical so as to have essentially the same length growing season. […]

soybeans = assay: Pre-planting sugar application on soybeans, Foxhome; assay type: in vivo, soybean; conditions: for Yield / Yield Increase Compared to Check: MN
Description: as §1, §2, §3
(§4) To test the impact of pre-planting application rates and sugar source on soybeans, identical field trials using Syngenta brand soybean seed were conducted at the Foxhome and Hickson locations. Planting of the soybean seed and harvest of the soybeans were conducted on approximately the same dates so as to have essentially the same growing season. […]

corn = assay: Pre-planting sugar application on corn, Foxhome; assay type: in vivo; conditions: for Yield / Yield Increase Compared to Check Average: MN
Description: as §1, §2, §3
as §4, with “corn,” for “soybeans,”, “Peterson Farms” for “Syngenta”, “corn” for “soybean”, “corn” for “soybeans”, “on” for “on approximately”

wheat = assay: Pre-planting sugar application on wheat, Foxhome; assay type: in vivo; conditions: for Yield / Yield Increase Compared to Check Average: MN
Description: as §1, §2, §3
as §4, with “wheat,” for “soybeans,”, “Westbred Mayville wheat” for “Syngenta brand soybean”, “wheat” for “soybean”, “wheat” for “soybeans”, “on” for “on approximately”

[1] = system: microflora that are present in the soil; assay: Solvita Soil CO2-Burst test of pre-emergent soil samples, soybean trial in Hickson
Description: In an attempt to quantify this boost, soil samples were taken during some of the previously discussed trials. These samples were tested using a standard Solvita Soil CO2-Burst Test Kit to generate measurements associated with CO2 respiration which can be used as an indicator of active soil carbon, soil microbial biomass and the potential for nutrient release beneficial to crop production. Generally, the higher the measured levels of CO2, the more advantageous the soil is for crop production.
The results of the CO2-Burst Testing are summarized in Table 17 below (using the replication designations from Table 7): […]

[2] = six rates (25-250 pounds/Acre) per sugar, thirty in all

OC[C@H]1O[C@@](CO)(O[C@H]2O[C@H](CO)[C@@H](O)[C@H](O)[C@H]2O)[C@@H](O)[C@@H]1O [GS, sucrose]
Recoverable Sugar Yield (sugarbeets; pre-planting 25 pounds/Acre): 9560 Pounds/Acre
Recoverable Sugar Yield Increase Compared to Check Average (sugarbeets; pre-planting 25 pounds/Acre): −2.54%
Sugarbeet Yield (sugarbeets; pre-planting 25 pounds/Acre): 32.73 Tons/Acre
Recoverable Sugar Yield (sugarbeets; pre-planting 50 pounds/Acre): 10509 Pounds/Acre
Recoverable Sugar Yield Increase Compared to Check Average (sugarbeets; pre-planting 50 pounds/Acre): 7.14%
Sugarbeet Yield (sugarbeets; pre-planting 50 pounds/Acre): 35.37 Tons/Acre
Recoverable Sugar Yield (sugarbeets; pre-planting 100 pounds/Acre): 9360 Pounds/Acre
Recoverable Sugar Yield Increase Compared to Check Average (sugarbeets; pre-planting 100 pounds/Acre): −4.58%
Sugarbeet Yield (sugarbeets; pre-planting 100 pounds/Acre): 31.94 Tons/Acre
Recoverable Sugar Yield (sugarbeets; pre-planting 150 pounds/Acre): 9877 Pounds/Acre
Recoverable Sugar Yield Increase Compared to Check Average (sugarbeets; pre-planting 150 pounds/Acre): 0.69%
Sugarbeet Yield (sugarbeets; pre-planting 150 pounds/Acre): 32.34 Tons/Acre
Recoverable Sugar Yield (sugarbeets; pre-planting 200 pounds/Acre): 9426 Pounds/Acre
Recoverable Sugar Yield Increase Compared to Check Average (sugarbeets; pre-planting 200 pounds/Acre): −3.90%
Sugarbeet Yield (sugarbeets; pre-planting 200 pounds/Acre): 31.37 Tons/Acre
Recoverable Sugar Yield (sugarbeets; pre-planting 250 pounds/Acre): 9587 Pounds/Acre
Recoverable Sugar Yield Increase Compared to Check Average (sugarbeets; pre-planting 250 pounds/Acre): −2.26%
Sugarbeet Yield (sugarbeets; pre-planting 250 pounds/Acre): 30.7 Tons/Acre
number of treatments showing negative yield benefits compared to check average (sugarbeets; six rates per sugar): four of the six
Yield (soybeans; pre-planting 25 pounds/Acre): 70.03 Bushels/Acre
Yield Increase Compared to Check (soybeans; pre-planting 25 pounds/Acre): 2.17%
Yield (soybeans; pre-planting 50 pounds/Acre): 70.87 Bushels/Acre
Yield Increase Compared to Check (soybeans; pre-planting 50 pounds/Acre): 3.40%
Yield (soybeans; pre-planting 100 pounds/Acre): 70.78 Bushels/Acre
Yield Increase Compared to Check (soybeans; pre-planting 100 pounds/Acre): 3.27%
Yield (soybeans; pre-planting 150 pounds/Acre): 71.45 Bushels/Acre
Yield Increase Compared to Check (soybeans; pre-planting 150 pounds/Acre): 4.25%
Yield (soybeans; pre-planting 200 pounds/Acre): 67.22 Bushels/Acre
Yield Increase Compared to Check (soybeans; pre-planting 200 pounds/Acre): −1.93%
Yield (soybeans; pre-planting 250 pounds/Acre): 66.99 Bushels/Acre
Yield Increase Compared to Check (soybeans; pre-planting 250 pounds/Acre): −2.26%
number of treatments showing yield improvement compared to check treatment 31 (soybeans; [2]): four of the six
Yield (corn; pre-planting 25 pounds/Acre): 271.62 Bushels/Acre
Yield Increase Compared to Check Average (corn; pre-planting 25 pounds/Acre): 2.20%
Yield (corn; pre-planting 50 pounds/Acre): 272.13 Bushels/Acre
Yield Increase Compared to Check Average (corn; pre-planting 50 pounds/Acre): 2.40%
Yield (corn; pre-planting 100 pounds/Acre): 274.80 Bushels/Acre
Yield Increase Compared to Check Average (corn; pre-planting 100 pounds/Acre): 3.40%
Yield (corn; pre-planting 150 pounds/Acre): 263.34 Bushels/Acre
Yield Increase Compared to Check Average (corn; pre-planting 150 pounds/Acre): −0.91%
Yield (corn; pre-planting 200 pounds/Acre): 264.61 Bushels/Acre
Yield Increase Compared to Check Average (corn; pre-planting 200 pounds/Acre): −0.43%
Yield (corn; pre-planting 250 pounds/Acre): 260.71 Bushels/Acre
Yield Increase Compared to Check Average (corn; pre-planting 250 pounds/Acre): −1.90%
number of treatments showing yield improvement compared to check average (corn; [2]): three of the six
Yield (wheat; pre-planting 25 pounds/Acre): 73.58 Bushels/Acre
Yield Increase Compared to Check Average (wheat; pre-planting 25 pounds/Acre): 13.55%
Yield (wheat; pre-planting 50 pounds/Acre): 70.01 Bushels/Acre
Yield Increase Compared to Check Average (wheat; pre-planting 50 pounds/Acre): 8.04%
Yield (wheat; pre-planting 100 pounds/Acre): 59.45 Bushels/Acre
Yield Increase Compared to Check Average (wheat; pre-planting 100 pounds/Acre): −8.26%
Yield (wheat; pre-planting 150 pounds/Acre): 66.65 Bushels/Acre
Yield Increase Compared to Check Average (wheat; pre-planting 150 pounds/Acre): 2.85%
Yield (wheat; pre-planting 200 pounds/Acre): 59.64 Bushels/Acre
Yield Increase Compared to Check Average (wheat; pre-planting 200 pounds/Acre): −7.96%
Yield (wheat; pre-planting 250 pounds/Acre): 59.73 Bushels/Acre
Yield Increase Compared to Check Average (wheat; pre-planting 250 pounds/Acre): −7.82%
number of treatments showing yield improvement compared to check average (wheat; [2]): three of the six
CO2 Burst ppm ([1]; sugar amount 50 pounds/acre): 63 ppm
CO2 Increase as Compared to Check Average ([1]; sugar amount 50 pounds/acre): 38.46%
CO2 Burst ppm ([1]; sugar amount 150 pounds/acre): 75 ppm
CO2 Increase as Compared to Check Average ([1]; sugar amount 150 pounds/acre): 64.84%
CO2 Burst ppm ([1]; sugar amount 250 pounds/acre): 53 ppm
CO2 Increase as Compared to Check Average ([1]; sugar amount 250 pounds/acre): 16.48%
